Laboratory results from ChEMBL document CHEMBL3039007, “Structure-based identification of OATP1B1/3 inhibitors” (Mol Pharmacol, 2013).

Tests used:
[1] = molecular target: T1, Solute carrier organic anion transporter family member 1B1 (Homo sapiens, UniProt Q9Y6L6); details: chinese hamster, cho, 10 µM
T1 sequence (Q9Y6L6 whole entry): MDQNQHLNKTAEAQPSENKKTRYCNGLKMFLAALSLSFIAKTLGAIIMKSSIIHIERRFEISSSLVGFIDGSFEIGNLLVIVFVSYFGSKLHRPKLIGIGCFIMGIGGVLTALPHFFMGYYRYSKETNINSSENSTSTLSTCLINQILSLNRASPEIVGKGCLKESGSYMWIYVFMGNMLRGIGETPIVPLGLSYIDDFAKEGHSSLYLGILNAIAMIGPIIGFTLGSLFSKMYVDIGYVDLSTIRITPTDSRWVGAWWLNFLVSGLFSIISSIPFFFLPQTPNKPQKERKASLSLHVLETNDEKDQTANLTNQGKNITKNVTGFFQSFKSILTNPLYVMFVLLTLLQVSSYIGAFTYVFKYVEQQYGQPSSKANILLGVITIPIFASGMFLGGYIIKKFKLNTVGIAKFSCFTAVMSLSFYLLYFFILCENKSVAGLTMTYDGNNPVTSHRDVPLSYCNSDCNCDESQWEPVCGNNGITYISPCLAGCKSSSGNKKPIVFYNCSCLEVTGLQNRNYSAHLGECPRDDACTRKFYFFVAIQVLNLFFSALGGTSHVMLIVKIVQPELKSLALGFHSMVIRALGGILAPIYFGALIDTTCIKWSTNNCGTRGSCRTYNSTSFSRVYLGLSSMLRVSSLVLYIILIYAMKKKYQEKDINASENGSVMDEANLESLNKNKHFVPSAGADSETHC

[2] = molecular target: T2, Solute carrier organic anion transporter family member 1B3 (Homo sapiens, UniProt Q9NPD5); details: chinese hamster, cho, 10 µM
T2 sequence (Q9NPD5 whole entry): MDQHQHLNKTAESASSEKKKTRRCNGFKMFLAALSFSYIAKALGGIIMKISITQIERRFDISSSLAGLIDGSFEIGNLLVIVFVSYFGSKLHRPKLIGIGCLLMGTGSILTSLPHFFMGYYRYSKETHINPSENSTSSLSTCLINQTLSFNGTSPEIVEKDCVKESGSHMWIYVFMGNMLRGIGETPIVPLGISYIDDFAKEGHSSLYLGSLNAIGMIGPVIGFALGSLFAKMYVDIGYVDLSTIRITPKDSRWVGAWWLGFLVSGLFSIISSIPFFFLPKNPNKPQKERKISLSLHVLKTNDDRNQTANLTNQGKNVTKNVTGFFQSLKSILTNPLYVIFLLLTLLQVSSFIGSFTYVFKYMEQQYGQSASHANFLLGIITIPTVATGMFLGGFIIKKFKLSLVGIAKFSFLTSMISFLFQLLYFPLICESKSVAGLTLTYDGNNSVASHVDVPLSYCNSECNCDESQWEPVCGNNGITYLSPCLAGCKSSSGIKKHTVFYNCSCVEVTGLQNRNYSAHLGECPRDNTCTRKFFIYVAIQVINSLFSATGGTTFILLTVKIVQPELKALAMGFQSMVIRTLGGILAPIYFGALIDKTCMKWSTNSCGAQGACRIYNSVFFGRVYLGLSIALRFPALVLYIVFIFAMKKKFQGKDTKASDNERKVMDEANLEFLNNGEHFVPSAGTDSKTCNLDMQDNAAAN

Compound `COc1c2ccoc2cc2oc(C)cc(=O)c12` [VISNAGIN] has a residual activity [1] of 127.2% and a residual activity [2] of 98.15%.
With `CC(=O)N[C@@H](Cc1c[nH]c2ccccc12)C(=O)O` [ACETYLTRYPTOPHAN] the residual activity [1] was 63.36% and the residual activity [2] was 85.99%.
For `NC(=O)c1cc([N+](=O)[O-])cc([N+](=O)[O-])c1` [NITROMIDE], the residual activity [1] was 103.7% and the residual activity [2] was 106.7%.
`CNC(=O)ON=C(C)SC` [METHOMYL] was tested, and the residual activity [1] was 80.5% and the residual activity [2] was 109.3%.
For `COc1ccc(Cc2nccc3cc(OC)c(OC)cc23)cc1OC.Cl` [PAPAVERINE HYDROCHLORIDE], the residual activity [1] was 266.9% and the residual activity [2] was 113.7%.
`C[C@H]1C(=O)CC[C@@H]2[C@]1(C)CC[C@H]1[C@@]2(C)CC[C@@]2(C)[C@@H]3CC(C)(C)CC[C@]3(C)CC[C@]12C` [FRIEDELINE] gave a residual activity [1] of 112% and a residual activity [2] of 90.31%.
`O=C1CCC[C@@H]2[C@H]3C[C@@H](CN12)[C@@H]1CCCCN1C3.[O-][Cl+3]([O-])([O-])O` showed a residual activity [1] of 115.5% and a residual activity [2] of 104.5%.
`OCC(O)C(O)C(O)C(O)C(O)CO` (centres undefined) [PERSEITOL] was tested, and the residual activity [1] was 60.19% and the residual activity [2] was 73.5%.
`CC(C)CCC[C@@H](C)[C@H]1CC[C@H]2C3=CC[C@H]4C[C@@H](O)CC[C@]4(C)[C@H]3CC[C@]12C` showed a residual activity [1] of 85.16% and a residual activity [2] of 99.24%.
For `CNC(=O)Oc1cccc2c1OC(C)(C)C2` [CARBOFURAN], the residual activity [1] was 100.9% and the residual activity [2] was 111.1%.
`Oc1ccc(Cl)c2cccnc12` [CLOXYQUIN] showed a residual activity [1] of 104% and a residual activity [2] of 93.36%.
In the case of `O=C(O)C1CCCNC1` (centres undefined) [NIPECOTIC ACID], the residual activity [1] was 91.42% and the residual activity [2] was 103.2%.
`C[C@]12CCC3c4ccc(OC(=O)c5ccccc5)cc4CCC3C1CCC2=O` (some centres undefined) [ESTRONE BENZOATE] showed a residual activity [1] of 121% and a residual activity [2] of 95.01%.
Compound `CCC(C)C(=O)OC1[C@@H]2CC3=C4CC(=O)O[C@@H](c5ccoc5)[C@]4(C)CCC3[C@@](C)(C2=O)[C@@H](CC(=O)OC)C1(C)C` (some centres undefined) [KHAYASIN] has a residual activity [1] of 98.52% and a residual activity [2] of 83.34%.
In the case of `COC(=O)C[C@H]1C(C)(C)[C@@H](OC(C)=O)[C@@H]2CC3=C4CC(=O)O[C@@H](c5ccoc5)[C@]4(C)CC[C@@H]3[C@@]1(C)C2=O` [FISSINOLIDE], the residual activity [1] was 27.44% and the residual activity [2] was 51.76%.
`Br.COc1c2c(cc3c1OCO3)CCN(C)C2` [HYDROCOTARNINE HYDROBROMIDE] was tested, and the residual activity [1] was 99.81% and the residual activity [2] was 89.75%.
`Cc1cc(C)cc(OCC2CNC(=O)O2)c1` (centres undefined) [METAXALONE] was tested, and the residual activity [1] was 88.21% and the residual activity [2] was 93.18%.
`CC(=O)O[C@H]1C[C@H](O[C@H]2[C@@H](O)C[C@H](O[C@H]3[C@@H](O)C[C@H](O[C@H]4CC[C@@]5(C)[C@H](CC[C@@H]6[C@@H]5C[C@@H](O)[C@]5(C)[C@@H](C7=CC(=O)OC7)CC[C@]65O)C4)O[C@@H]3C)O[C@@H]2C)O[C@H](C)[C@H]1O[C@@H]1O[C@H](CO)[C@@H](O)[C@H](O)[C@H]1O` [LANATOSIDE C] was tested, and the residual activity [1] was 102.5% and the residual activity [2] was 86.15%.
For `Cl.N[C@H]1C(O)O[C@H](CO)[C@@H](O)[C@@H]1O` (some centres undefined) [GLUCOSAMINE HYDROCHLORIDE], the residual activity [1] was 60.72% and the residual activity [2] was 87.62%.
With `C1N2CN3CN1CN(C2)C3` [METHENAMINE] the residual activity [1] was 93.33% and the residual activity [2] was 72.89%.
Work on `Cc1cccc(CN2CCN(C(c3ccccc3)c3ccc(Cl)cc3)CC2)c1.Cl.O` (centres undefined) yielded a residual activity [1] of 80.22% and a residual activity [2] of 79.23%.
Work on `O=C(CCBr)N1CCN(C(=O)CCBr)CC1` [PIPOBROMAN] yielded a residual activity [1] of 62.45% and a residual activity [2] of 82.4%.
Compound `C[C@](N)(Cc1ccc(O)cc1)C(=O)O` [METYROSINE] has a residual activity [1] of 64.38% and a residual activity [2] of 84.41%.
`CC(C)Cc1ccc(C(C)C(=O)O)cc1` (centres undefined) [IBUPROFEN] showed a residual activity [1] of 111.7% and a residual activity [2] of 98.25%.
Work on `CN(C)[C@@H]1C(O)=C(C(N)=O)C(=O)[C@@]2(O)C(O)=C3C(=O)c4c(O)ccc(Cl)c4[C@@](C)(O)[C@H]3C[C@@H]12.Cl` [CHLORTETRACYCLINE HYDROCHLORIDE] yielded a residual activity [1] of 128.8% and a residual activity [2] of 95.91%.
In the case of `O=C(O)c1cc2cc(Cl)ccc2[nH]1` [5-CHLOROINDOLE-2-CARBOXYLIC ACID], the residual activity [1] was 75.02% and the residual activity [2] was 91.36%.
`Nc1ccccc1C(=O)CC(N)C(=O)O` (centres undefined) [KYNURENINE] showed a residual activity [1] of 58.07% and a residual activity [2] of 67.15%.
`C[C@H](CCC(=O)O)[C@H]1CC[C@H]2[C@@H]3CC[C@@H]4CC(=O)CC[C@]4(C)[C@H]3C=C[C@]12C` gave a residual activity [1] of 40.37% and a residual activity [2] of 203.2%.
For `Cn1c(=O)c2c(ncn2C)n(C)c1=O` [CAFFEINE], the residual activity [1] was 103.6% and the residual activity [2] was 90.35%.
`COc1ccc(-c2coc3cc(O)ccc3c2=O)cc1` [FORMONONETIN] showed a residual activity [1] of 169.8% and a residual activity [2] of 114.7%.
In the case of `CCN(CCCCOC(=O)c1ccc(OC)c(OC)c1)C(C)Cc1ccc(OC)cc1.Cl` (centres undefined) [MEBEVERINE HYDROCHLORIDE], the residual activity [1] was 89.99% and the residual activity [2] was 112%.
Compound `COc1ccc([C@@H]2CC(=O)c3c(O)cc(O)cc3O2)cc1O` [HESPERETIN] has a residual activity [1] of 98.42% and a residual activity [2] of 113.3%.
`CN1[C@@H](CC(=O)c2ccccc2)CCC[C@H]1C[C@H](O)c1ccccc1.Cl` [LOBELINE HYDROCHLORIDE] was tested, and the residual activity [1] was 125.6% and the residual activity [2] was 108.5%.
`Cl.O=C(O)C1=CCNCC1` [ISOGUVACINE HYDROCHLORIDE] showed a residual activity [1] of 113.5% and a residual activity [2] of 103.5%.
With `O=C(O)/C=C/c1ccc(O)c(O)c1` [CAFFEIC ACID] the residual activity [1] was 69.6% and the residual activity [2] was 94%.
With `O=c1c(O)cc([C@H]2Oc3cc(O)cc(O)c3C[C@H]2O)cc2c([C@H]3Oc4cc(O)cc(O)c4C[C@H]3O)cc(O)c(O)c12` [THEAFLAVIN] the residual activity [1] was 53% and the residual activity [2] was 75.27%.
In the case of `Oc1ccc(/C=C/c2cc(O)cc(O)c2)cc1` [RESVERATROL], the residual activity [1] was 157.6% and the residual activity [2] was 116.7%.
Compound `NNCCc1ccccc1.O=S(=O)(O)O` [PHENELZINE SULFATE] has a residual activity [1] of 91.37% and a residual activity [2] of 110.5%.
Work on `Cl.O=C(O)CCC1NCC2CC1CN1CCCCC21` (centres undefined) [LUPANYL ACID HYDROCHLORIDE] yielded a residual activity [1] of 104.4% and a residual activity [2] of 103.3%.
`CC[C@H](/C=C/[C@@H](C)[C@H]1CC[C@H]2[C@@H]3CC=C4C[C@@H](O)CC[C@]4(C)[C@H]3CC[C@]12C)C(C)C` [STIGMASTEROL] gave a residual activity [1] of 110.2% and a residual activity [2] of 103.2%.
In the case of `C#CC1(O)CC[C@H]2[C@@H]3CCC4=CC(=O)CC[C@@H]4[C@H]3CC[C@@]21CC` (some centres undefined) [NORGESTREL], the residual activity [1] was 90.26% and the residual activity [2] was 102.9%.
In the case of `CC1(C)C=CC(=O)[C@]2(C)[C@H]3CC[C@@]4(C)[C@H](c5ccoc5)OC(=O)[C@H]5O[C@]54[C@]3(C)C(=O)C[C@@H]12`, the residual activity [1] was 56.15% and the residual activity [2] was 89.62%.
In the case of `CN(C)CCC[C@@]1(c2ccc(F)cc2)OCc2cc(C#N)ccc21.O=C(O)C(=O)O` [ESCITALOPRAM OXALATE], the residual activity [1] was 102.3% and the residual activity [2] was 117.8%.
`CCCc1occc(=O)c1/C=C/O` [2-PROPYL-3-HYDROXYETHYLENEPYRAN-4-ONE] gave a residual activity [1] of 128.5% and a residual activity [2] of 129.3%.
With `OC[C@H]1O[C@@H](O[C@H]2[C@H](O)[C@@H](O)[C@@H](O)O[C@@H]2CO)[C@H](O)[C@@H](O)[C@@H]1O` [CELLBIOSE] the residual activity [1] was 90.6% and the residual activity [2] was 109.6%.
With `CCOc1cccc(C(=O)c2ccc(O)c(O)c2O)c1` the residual activity [1] was 134.3% and the residual activity [2] was 108.6%.
For `COc1cc(OC)c2c(=O)c(-c3ccccc3)coc2c1` [5,7-DIMETHOXYISOFLAVONE], the residual activity [1] was 99.46% and the residual activity [2] was 104.7%.
